Test results published in patent publication US20260250277A1, “HYDRAZINO GROUP-CONTAINING COMPOUND” (CHIA TAI TIANQING PHARMACEUTICAL GROUP CO., LTD., priority 2022, published 2026).
Like-named read-outs stand apart in the source and are kept apart here.

Legend:
[1] = In vivo pharmacokinetics (Table 4); conditions: plasma; for MRT last: read-out: MRT(0-t); for Vd: read-out: Vz
[2] = molecular target: DNA-PK (DNA-dependent protein kinase) (Homo sapiens, UniProt P78527); assay: Inhibitory activity against DNA-PK (p53 substrate, HTRF); assay type: biochemical
Experimental: (§1) DNA-PK kinase solution (concentration: 0.15 ng/μL) was added to assay wells at 6 μL/well, and different compounds dissolved in DMSO were added to the assay wells separately using a nanoliter pipettor, such that the final concentrations of the compounds were 10000 nM to 2.44 nM. In this experiment, the wells were set in duplicate, and a control well was set. After incubation of the above system for 30 min at room temperature, ATP (100 μM) was mixed with p53 substrate (50 nM) at a ratio of 1:1, and the mixture was added at 4 μL/well. The resulting mixture was left to react at room temperature for 2 h, and then 5 μL of EDTA was added to terminate the reaction, followed by addition of 5 μL of detection antibodies, Mab Anti-phospho p53 and Mab Anti GST-d2 (manufacturer: perkinelmer). The mixture was incubated at room temperature for 1 h. The plate was read using a PerkinElmer Envision multifunctional microplate reader (excitation: 320 nm, emission: 620 nm/665 nm), and IC50 was calculated by four-parameter fitting.

ATM kinase = ATM kinase (Homo sapiens, UniProt Q13315); assay: Inhibitory activity against ATM kinase (p53 substrate, HTRF); assay type: biochemical
Experimental: as §1, with “ATM” for “DNA-PK”, “25” for “0.15”

[3] = test system: CHK2 phosphorylation of NCI-H2228 cells; assay: Inhibitory activity against CHK2 phosphorylation of NCI-H2228 cells (p-CHK2 Thr68 AlphaLISA); assay type: cell-based; conditions: Homo sapiens
Experimental: NCI-H2228 cells in a good growth state were collected, added to a centrifuge tube, adjusted to a cell density of 1.25×10^6 cells/mL, and seeded in a 384-well plate (8 μL/well). The cells were equilibrated in a cell incubator for 1.5 h, and then compounds were added using a nanoliter pipettor, such that the final concentrations of the compounds were 200 nM to 0.049 nM. In this experiment, the wells were set in duplicate, and a control well was set. After the mixture was further cultured for 1 h in the cell incubator, an assay was performed using a p-CHK2 (Thr68) assay kit (manufacturer: perkinelmer) and the Envision microplate reader AlphaLISA program. A four-parameter analysis was performed, a dose-response curve was fit, and IC50 was calculated.

[4] = molecular target: ATR/ATPIP (ATR-interacting protein) kinase (Homo sapiens, UniProt Q13535); assay: Inhibitory activity against ATR kinase (p53 substrate, HTRF); assay type: biochemical
ATR/ATPIP (ATR-interacting protein) kinase, sequence (Q13535 whole entry): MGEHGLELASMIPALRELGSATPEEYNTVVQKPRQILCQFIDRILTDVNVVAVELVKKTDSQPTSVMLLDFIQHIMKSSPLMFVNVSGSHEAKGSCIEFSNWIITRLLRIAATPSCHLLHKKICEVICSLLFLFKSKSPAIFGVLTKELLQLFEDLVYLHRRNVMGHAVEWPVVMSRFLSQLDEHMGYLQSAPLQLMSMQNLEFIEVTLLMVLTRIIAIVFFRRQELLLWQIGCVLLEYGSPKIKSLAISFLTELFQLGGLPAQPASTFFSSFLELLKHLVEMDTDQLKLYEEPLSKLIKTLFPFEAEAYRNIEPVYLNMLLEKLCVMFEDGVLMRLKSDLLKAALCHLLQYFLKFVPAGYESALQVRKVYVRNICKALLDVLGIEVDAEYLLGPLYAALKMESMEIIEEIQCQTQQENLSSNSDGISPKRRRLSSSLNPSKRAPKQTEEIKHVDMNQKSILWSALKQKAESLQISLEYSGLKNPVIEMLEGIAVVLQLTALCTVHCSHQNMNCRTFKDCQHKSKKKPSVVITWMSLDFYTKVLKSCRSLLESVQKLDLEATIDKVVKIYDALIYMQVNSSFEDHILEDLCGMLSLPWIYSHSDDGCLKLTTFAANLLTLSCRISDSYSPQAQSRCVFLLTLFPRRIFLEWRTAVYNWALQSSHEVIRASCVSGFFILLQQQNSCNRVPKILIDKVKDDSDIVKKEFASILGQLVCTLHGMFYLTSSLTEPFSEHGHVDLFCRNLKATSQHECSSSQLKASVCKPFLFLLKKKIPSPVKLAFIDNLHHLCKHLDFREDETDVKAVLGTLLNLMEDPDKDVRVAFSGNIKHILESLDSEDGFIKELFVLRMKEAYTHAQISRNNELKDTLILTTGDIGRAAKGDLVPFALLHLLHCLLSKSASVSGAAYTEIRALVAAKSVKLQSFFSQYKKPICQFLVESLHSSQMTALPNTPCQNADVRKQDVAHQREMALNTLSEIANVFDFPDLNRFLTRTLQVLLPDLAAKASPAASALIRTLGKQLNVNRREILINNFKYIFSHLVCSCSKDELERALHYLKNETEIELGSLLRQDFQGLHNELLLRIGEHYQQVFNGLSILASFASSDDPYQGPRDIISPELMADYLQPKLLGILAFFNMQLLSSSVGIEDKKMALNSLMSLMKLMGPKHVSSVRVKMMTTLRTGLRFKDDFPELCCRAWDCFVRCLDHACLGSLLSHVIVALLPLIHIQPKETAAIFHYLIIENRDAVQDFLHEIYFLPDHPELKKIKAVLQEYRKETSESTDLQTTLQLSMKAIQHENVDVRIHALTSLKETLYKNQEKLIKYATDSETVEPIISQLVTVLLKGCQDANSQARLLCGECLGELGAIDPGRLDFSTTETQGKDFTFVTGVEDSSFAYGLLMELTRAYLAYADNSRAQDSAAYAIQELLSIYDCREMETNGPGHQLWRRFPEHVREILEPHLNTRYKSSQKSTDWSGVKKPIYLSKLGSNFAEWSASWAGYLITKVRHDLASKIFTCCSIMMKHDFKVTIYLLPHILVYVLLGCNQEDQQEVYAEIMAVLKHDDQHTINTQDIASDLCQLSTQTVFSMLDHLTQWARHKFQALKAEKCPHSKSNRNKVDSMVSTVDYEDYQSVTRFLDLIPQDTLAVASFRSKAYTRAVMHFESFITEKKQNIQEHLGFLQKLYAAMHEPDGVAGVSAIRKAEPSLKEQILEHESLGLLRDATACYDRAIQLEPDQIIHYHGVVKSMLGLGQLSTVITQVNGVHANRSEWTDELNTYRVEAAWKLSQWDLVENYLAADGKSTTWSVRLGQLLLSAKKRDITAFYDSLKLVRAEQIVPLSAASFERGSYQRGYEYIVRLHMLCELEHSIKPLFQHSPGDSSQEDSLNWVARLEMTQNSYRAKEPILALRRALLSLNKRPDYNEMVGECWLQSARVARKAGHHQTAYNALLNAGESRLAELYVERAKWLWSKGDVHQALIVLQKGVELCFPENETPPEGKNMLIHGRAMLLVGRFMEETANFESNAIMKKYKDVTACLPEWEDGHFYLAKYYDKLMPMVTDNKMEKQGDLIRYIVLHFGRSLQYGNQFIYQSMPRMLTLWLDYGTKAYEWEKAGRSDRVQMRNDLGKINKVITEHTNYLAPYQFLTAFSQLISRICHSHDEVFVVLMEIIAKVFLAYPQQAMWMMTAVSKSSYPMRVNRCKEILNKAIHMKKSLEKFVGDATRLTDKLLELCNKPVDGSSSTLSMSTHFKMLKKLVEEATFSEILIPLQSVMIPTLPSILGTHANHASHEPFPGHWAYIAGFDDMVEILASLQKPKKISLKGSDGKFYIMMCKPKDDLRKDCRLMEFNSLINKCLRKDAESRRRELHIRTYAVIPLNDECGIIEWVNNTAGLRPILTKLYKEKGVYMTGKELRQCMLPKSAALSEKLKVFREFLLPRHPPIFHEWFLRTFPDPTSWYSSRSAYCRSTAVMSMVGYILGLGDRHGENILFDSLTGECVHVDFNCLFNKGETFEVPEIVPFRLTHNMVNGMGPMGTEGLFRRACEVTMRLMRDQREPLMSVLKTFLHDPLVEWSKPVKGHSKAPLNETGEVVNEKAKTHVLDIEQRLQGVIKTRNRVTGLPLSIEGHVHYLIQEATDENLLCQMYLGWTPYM
ATR/ATPIP (ATR-interacting protein) kinase, sequence (Q8WXE1 whole entry partner): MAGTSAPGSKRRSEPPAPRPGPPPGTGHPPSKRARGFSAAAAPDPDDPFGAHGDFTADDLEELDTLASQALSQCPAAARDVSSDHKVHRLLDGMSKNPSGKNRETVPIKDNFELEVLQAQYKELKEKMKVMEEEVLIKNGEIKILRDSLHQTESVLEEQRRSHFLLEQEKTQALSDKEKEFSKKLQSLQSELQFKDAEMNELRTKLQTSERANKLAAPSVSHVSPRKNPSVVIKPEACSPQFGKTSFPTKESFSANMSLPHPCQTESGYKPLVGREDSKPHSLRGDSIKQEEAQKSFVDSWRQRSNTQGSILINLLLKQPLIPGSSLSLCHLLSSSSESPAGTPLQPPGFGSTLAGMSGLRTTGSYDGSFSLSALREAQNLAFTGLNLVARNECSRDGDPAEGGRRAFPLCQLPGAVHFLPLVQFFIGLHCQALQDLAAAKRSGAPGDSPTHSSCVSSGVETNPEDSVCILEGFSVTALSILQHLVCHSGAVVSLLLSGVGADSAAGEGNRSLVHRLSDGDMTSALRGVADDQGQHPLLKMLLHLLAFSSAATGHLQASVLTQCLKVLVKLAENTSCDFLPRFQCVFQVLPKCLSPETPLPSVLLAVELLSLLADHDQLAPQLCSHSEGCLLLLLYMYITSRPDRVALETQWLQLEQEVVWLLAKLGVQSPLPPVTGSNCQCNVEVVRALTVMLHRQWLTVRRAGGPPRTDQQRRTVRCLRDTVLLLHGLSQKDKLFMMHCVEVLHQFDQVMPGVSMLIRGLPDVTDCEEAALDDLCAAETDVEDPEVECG
Experimental: as §1, with “ATR/ATPIP (ATR-interacting protein)” for “DNA-PK”, “50” for “0.15”, “(5” for “(100”

| AUC(0-inf) ([1]; iv, 1 mg/kg) | AUC(0-t) ([1]; iv, 1 mg/kg) | half-life ([1]; iv, 1 mg/kg) | MRT last ([1]; iv, 1 mg/kg) | Vd ([1]; iv, 1 mg/kg) | AUC(0-inf) ([1]; po, IG, 10 mg/kg) | AUC(0-t) ([1]; po, IG, 10 mg/kg) | Cmax ([1]; po, IG, 10 mg/kg) | Tmax ([1]; po, IG, 10 mg/kg) | half-life ([1]; po, IG, 10 mg/kg) | MRT last ([1]; po, IG, 10 mg/kg) | IC50 [2] | IC50 (ATM kinase) | IC50 [3] | IC50 [4] | Compound |
| --- | --- | --- | --- | --- | --- | --- | --- | --- | --- | --- | --- | --- | --- | --- | --- |
| 539 ng·h/mL | 521 ng·h/mL | 1.7 h | 2.11 h | 4.55 L/kg | 4270 ng·h/mL | 4150 ng·h/mL | 521 ng/mL | 0.5 h | 4.59 h | 6.1 h | > 1000 nM | < 50 nM | < 50 nM | 821 nM | CC(C)n1c(=O)n(N)c2cnc3cc(F)c(-c4ccc(OCCCN5CCCCC5)nc4)cc3c21 [Example 2] |
| 460 ng·h/mL | 445 ng·h/mL | 1.74 h | 2.1 h | 5.45 L/kg | 4330 ng·h/mL | 4250 ng·h/mL | 495 ng/mL | 1 h | 4.01 h | 6.05 h | > 1000 nM | < 50 nM | < 50 nM | > 1000 nM | CC(C)n1c(=O)n(N)c2cnc3cc(F)c(-c4ccc(OCCCN5CCCC5)nc4)cc3c21 [Example 3] |
| 624 ng·h/mL | 587 ng·h/mL | 2.17 h | 1.89 h | 3.9 L/kg | 4500 ng·h/mL | 4460 ng·h/mL | 506 ng/mL | 4 h | 3.51 h | 4.99 h | > 1000 nM | < 50 nM | < 50 nM | > 1000 nM | Nn1c(=O)n(C2CC2)c2c3cc(-c4ccc(OCCCN5CCCCC5)nc4)c(F)cc3ncc21 [Example 18] |
| 474 ng·h/mL | 451 ng·h/mL | 2.05 h | 1.84 h | 4.82 L/kg | 4000 ng·h/mL | 3980 ng·h/mL | 485 ng/mL | 4 h | 3.07 h | 4.72 h | > 1000 nM | < 50 nM | < 50 nM | > 1000 nM | Nn1c(=O)n(C2CC2)c2c3cc(-c4ccc(OCCCN5CCCC5)nc4)c(F)cc3ncc21 [Example 19] |
